Assay results published in patent publication US11613528B2, “Small molecule inhibitors of shared epitope-calreticulin interactions and methods of use” (The Regents of the University of Michigan, priority 2017, dated 2023).
Entries after “also recorded” stand apart in the source; their conditions may differ.

Tests used:
[1] = test system: RAW 264.7 cells; assay: in vitro osteoclast (OC) differentiation assay; assay type: cell-based, mouse
Method: OC differentiation was determined at day 5.
RAW 264.7 cells were cultured in OC-differentiating conditions in the presence or absence of the racemic mix (left) of HL840, the S-enantiomer (middle), or the R-enantiomer (right) at different concentrations, and their inhibitory effect on OC differentiation was determined at day 5.
To differentiate osteoclast (OC) from RAW 264.7 mouse macrophages, cells were cultured in the same way (2×10^4 per well), except that RANKL was added at a concentration of 20 ng/ml, for 5-6 days in the presence or absence of various compounds at different concentrations. To quantify the number of OCs, cultures were fixed and stained for tartrate-resistant acid phosphatase (TRAP) activity using an acid phosphatase kit (Kamiya Biomedical Company, Seattle, Wash.) according to the manufacturer's instructions. TRAP-positive multinucleated OCs (>3 nuclei) were counted using a tissue culture inverted microscope. All experiments were performed in triplicates and repeated 4 (C & D, n=12) or 3 (E-L; n=9) times. Percent inhibition of OC formation relative to cultures with PBS were calculated and presented as dose-response curves. IC50 values were calculated using the GraphPad-Prism software.

[2] = test system: mice with CIA; assay: collagen induced arthritis (CIA) animal model; assay type: in vivo, DBA/1 mice; settings: oral, doses as low as 1.25 μg/Kg body weight twice weekly
Method: Arthritis incidence was recorded.
2-tailed Student t-test; **, p<0.005.
Specifically, experiments were conducted with an animal model of collagen induced arthritis (CIA).

[3] = test system: SE-CRT interactions; assay: inhibition of SE-CRT interactions; assay type: binding
[4] = test system: SKG mice; assay: pre-clinical model of RA in SKG mice; assay type: in vivo
[5] = oral availability in vivo (oral gavage, serum levels); design: species or system DBA/1 mice
[6] = permeability through Caco-2 cell layers; assay type: in vitro ADME; settings: human

| IC50 ([1]; Mus musculus, RAW264.7, 120 h, RAW 264.7 cells in OC-differentiating conditions, OC differentiation at day 5, read-out: anti-osteoclast (OC) activity IC50) | Papp A→B [6] | Compound | arthritis severity [2] | bone destruction (radiologic bone damage) [2] | disease development (arthritis incidence) [2] | inhibition of SE-CRT interactions [3] | therapeutic effects [4] | oral availability in vivo [5] | enantiomer-specific activity (e.g., inhibition of SE-CRT interaction and signaling) of racemic HL840 ([1]; inhibitory effect on OC differentiation at day 5, FIG. 3) |
| --- | --- | --- | --- | --- | --- | --- | --- | --- | --- |
| 19.9 pM | 5.6 ×10⁻⁶ cm/s | Cn1cc(/C=C/C(=O)N2CCC[C@@H](Cn3cc(CN)nn3)C2)cn1 (racemic) [HL840, (R,E)-(1-((1-(3-(1-methyl-1H-pyrazol-4-yl)acryloyl)piperidin-3-yl)methyl)-1H-1,2,3-triazol-4-yl)methanaminium] | decreased arthritis severity | prevented bone destruction | strongly inhibited disease development | potent, competitive inhibition | Significant therapeutic effects | moderately orally available; also recorded: orally available in vivo |  |
|  |  | Cn1cc(/C=C/C(=O)N2CCC[C@@H](Cn3cc(CN)nn3)C2)cn1 (single isomer, unassigned) [(R)-enantiomer] |  |  |  |  |  |  | responsible for all activity |
